Experimental data as given in paper PMC12133303, “Characterisation of RNA guanine-7 methyltransferase (RNMT) using a small molecule approach” (Biochemical Journal, 2025).
Where two headings read alike, the source gives them in different places. Each block holds one compound with its values, some of them ahead of it.

Assays:
HsRNMT-RAM [1] = target: T1, HsRNMT-RAM (Homo sapiens, UniProt O43148); experiment: Isothermal titration calorimetry (ITC); type: binding; set-up: For biochemical assays, full-length HsRNMT (1-476) was cloned in the pOPC bi-cistronic plasmid; His-MBP (TEV-cleavable) (cleaved yes); made in house; host or cells: Escherichia coli BL21 (DE3); details: for ΔG / ΔH / −TΔS: 25 mM HEPES pH7.5, 150 mM NaCl, 1 mM TCEP with 10 mM Sinefungin or SAH at 298°K; for Kd: protein pretreated with Sinefungin or SAH
T1 sequence (O43148 whole entry): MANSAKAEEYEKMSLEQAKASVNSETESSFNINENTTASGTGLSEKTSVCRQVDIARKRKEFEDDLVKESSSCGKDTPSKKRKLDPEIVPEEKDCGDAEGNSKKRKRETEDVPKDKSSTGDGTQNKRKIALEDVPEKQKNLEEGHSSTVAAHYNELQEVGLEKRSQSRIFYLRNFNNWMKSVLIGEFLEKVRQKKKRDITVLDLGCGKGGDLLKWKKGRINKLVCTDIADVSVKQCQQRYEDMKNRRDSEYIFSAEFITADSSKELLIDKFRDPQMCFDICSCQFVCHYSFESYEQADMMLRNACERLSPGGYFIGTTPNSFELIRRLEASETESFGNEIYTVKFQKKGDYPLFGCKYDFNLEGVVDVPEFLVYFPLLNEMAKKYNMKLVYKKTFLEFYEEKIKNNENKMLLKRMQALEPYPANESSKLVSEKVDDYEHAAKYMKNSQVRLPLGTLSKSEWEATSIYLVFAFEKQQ
T1 sequence (Q9BTL3 1-90 partner limits assumed): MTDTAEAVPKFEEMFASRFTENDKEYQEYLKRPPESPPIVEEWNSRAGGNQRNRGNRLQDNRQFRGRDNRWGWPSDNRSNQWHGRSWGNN
Procedure: For both DDD1060606 and DDD1870799, we determined the enthalpic and entropic components of the free energy of binding to HsRNMT-RAM to guide both compound selection and the optimisation process. Note that all of the isothermal titration calorimetry (ITC) experiments were performed with protein pretreated with SAH or Sinefungin. We used cap as the reference ligand as it is widely accepted that ligands with more negative enthalpies of binding provide better starting points for lead optimisation. The interaction of cap with HsRNMT-RAM is enthalpically driven with an ΔH of −33.5 kcal/mol (Figure 9A) and net free energy change, ΔG of −8.4 kcal/mol (Figure 9B). Furthermore, we determined the binding affinities for DDD1060606 and DDD1870799 to HsRNMT-RAM.
[…] Working stock for ligands and protein complex was prepared at the required concentration by diluting the stocks with the dialysis buffer. The DMSO concentrations in the cell and syringe solutions were matched to 2.5% for the compound (DDD1060606 or DDD1870799) titrations. Experiments were performed using 13 injections of 3 μL of ligand using Malvern PEAQ-ITC system at 25°C, at 750 rpm with reference power set to 7 μcal/s. The thermograms were analysed using MicroCal PEAQ-ITC Analysis Software, blanked to ligand control and fit to One Set of Sites Model.

Avi-HsRNMT-RAM = target: T2, Avi-HsRNMT-RAM (Homo sapiens, UniProt O43148); experiment: SPR binding to immobilised Avi-HsRNMT-RAM; details: for kon: read-out: ka
T2 construct: Both HsRNMT full-length proteins (1-476) in complex with HsRAM (1-90) (HsRNMT-RAM and Avi-HsRNMT-RAM); hexa-His tag (TEV-cleavable) (N, cleaved yes); made in house; host or cells: Escherichia coli BL21 (DE3), co-transformed with pCDFduet-BirA
T2 sequence (O43148 whole entry): as the sequence (O43148 whole entry) above
T2 sequence (Q9BTL3 1-90 partner limits assumed): as the sequence (Q9BTL3 1-90 partner limits assumed) above
From the text: To elucidate the cap-binding mode, full-length HsRNMT in complex with activating subunit RAM (Avi-HsRNMT-RAM) was investigated by surface plasmon resonance (SPR). We first measured the kinetic and equilibrium binding constants (KD) for SAM (Figure 3A), SAH (Figure 3B), and Sinefungin (Figure 3C). The kinetics of binding for these compounds appear very similar with a rapid onset of binding reaching a steady state within a few seconds. The loss of binding on washing with buffer was very similar.
Studies of binding kinetics were performed on a Biacore™ 8K + instrument (GE Healthcare). […] Compounds were tested in duplicate in a three-fold, eight-point serial dilution series in immobilisation buffer supplemented with 1% DMSO, with a flow rate of 30 μL min^-1, a contact time of 60 s and a dissociation time of 120 s at 25°C.
All monitored binding resonance signals were referenced with responses from unmodified reference surfaces, corrected for bulk shifts arising from differences in DMSO concentrations between samples and running buffer (solvent correction) and blank-referenced. Analysis was performed using the Biacore™ Insight Evaluation Software 2.0 with data fitted using the Langmuir 1:1 model.
The full-length HsRNMT complexed with HsRAM 1–90 (Avi-HsRNMT-RAM) was immobilised onto a Series S high-affinity SA sensor chip via C-terminal Avi-tag capture in HBS-P + buffer (10 mM HEPES, 150 mM NaCl, 0.5 mM TCEP) to an immobilisation level of 2200 RU, and the titration was performed at 15°C.

HsRNMT-RAM [2] = target: T1, HsRNMT-RAM; experiment: Mode of inhibition experiments (RapidFire assay); details: for Ki: Ki (95% CI)
HsRNMT-RAM [3] = target: T1, HsRNMT-RAM; experiment: RapidFire mass spectrometry assay, inhibition dose response; type: biochemical; set-up: For biochemical assays, full-length HsRNMT (1-476) was cloned in the pOPC bi-cistronic plasmid; His-MBP (TEV-cleavable) (cleaved yes); made in house; host or cells: Escherichia coli BL21 (DE3); details: for IC50: 5 nM HsRNMT-RAM, 2 µM SAM, 2 µM cap, 60 minutes, 10 point 1:3 dilutions from 100 μM, read-out: pIC50 (negative logarithm of half-maximal inhibitory concentration [molar]) (converted)
HsRNMT-RAM [4] = target: T1, HsRNMT-RAM; experiment: Km determinations (RapidFire Mass Spec assay); type: biochemical; set-up: For biochemical assays, full-length HsRNMT (1-476) was cloned in the pOPC bi-cistronic plasmid; His-MBP (TEV-cleavable) (cleaved yes); made in house; host or cells: Escherichia coli BL21 (DE3); details: SAM 40 to 0.08 µM, saturating cap (40 µM), 5 nM enzyme; mean of three experiments [95% CI]
Procedure: Experiments to determine the Km^app values were carried out using a two-fold dilution of cap or SAM from 40 to 0.08 µM and a saturating concentration (40 µM) of SAM (Km^app cap) or cap (Km^app SAM). HsRNMT-RAM was used at 5 nM. Data were analysed to calculate the initial velocity (V0). Km^app and Vmax values were determined by nonlinear regression analysis fitted to the Michaelis–Menten equation [46] using Sigmaplot Version 14.0.3.192.

[5] = SPR, ligand titrated in presence of SAH
[6] = SPR, ligand titrated in presence of Sinefungin (saturating, 1 µM), 15°C
[7] = SPR, no co-ligand, Langmuir 1:1 model
[8] = SPR, inhibitor titrated in presence of SAH
[9] = SPR, inhibitor titrated in presence of SAH, read-out: KD (kinetic)
[10] = SPR, inhibitor titrated in presence of SAH, read-out: KD (steady state)
[11] = SPR, inhibitor titrated in presence of SAM
[12] = SPR, inhibitor titrated, no co-ligand
[13] = SPR, no co-ligand, read-out: KD (kinetic)
[14] = SPR, no co-ligand, read-out: KD (steady state)

SMILES: Nc1nc2c(ncn2[C@@H]2O[C@H](COP(=O)(O)OP(=O)(O)OP(=O)(O)OC[C@H]3O[C@@H](n4cnc5c(=O)[nH]c(N)nc54)[C@H](O)[C@@H]3O)[C@@H](O)[C@H]2O)c(=O)[nH]1 [Cap, G(5′)ppp(5′)G]
ΔG (HsRNMT-RAM [1]): -8.4 kcal/mol
ΔH (HsRNMT-RAM [1]): -33.5 kcal/mol
−TΔS (HsRNMT-RAM [1]): 25.1 kcal/mol
Kd (HsRNMT-RAM [1]): 0.7 µM
KD (kinetic) (Avi-HsRNMT-RAM; [5]): No binding
KD (steady state) (Avi-HsRNMT-RAM; [5]): No binding
Rmax (Avi-HsRNMT-RAM; [5]): No binding
ka (Avi-HsRNMT-RAM; [5]): No binding
kd (Avi-HsRNMT-RAM; [5]): No binding
KD (kinetic) (Avi-HsRNMT-RAM; SPR, ligand titrated in presence of SAH, listed as cap): No interaction
Rmax (Avi-HsRNMT-RAM; [6]): 11.8 RU
kd (Avi-HsRNMT-RAM; [6]): 0.025 s⁻¹
Kd (Avi-HsRNMT-RAM; SPR, ligand titrated in presence of Sinefungin (saturating, 1 µM), 15°C, read-out: KD (kinetic)): 0.02 µM
Kd (Avi-HsRNMT-RAM; SPR, ligand titrated in presence of Sinefungin (saturating, 1 µM), 15°C, read-out: KD (steady state)): 0.035 µM
kon (Avi-HsRNMT-RAM; [6]): 1.2e+06 M⁻¹ s⁻¹
KD (kinetic) (Avi-HsRNMT-RAM; SPR, no co-ligand): No binding
KD (steady state) (Avi-HsRNMT-RAM; SPR, no co-ligand): No binding
Rmax (Avi-HsRNMT-RAM; SPR, no co-ligand): No binding
ka (Avi-HsRNMT-RAM; [7]): No binding
kd (Avi-HsRNMT-RAM; [7]): No binding
KD (kinetic) (Avi-HsRNMT-RAM; SPR, no co-ligand, listed as cap): No interaction

SMILES: Nc1nc(O)c2ncn([C@@H]3O[C@H](COP(=O)(O)OP(=O)(O)NP(=O)(O)O)[C@@H](O)[C@H]3O)c2n1 [GMP-PnP, guanosine 5′-[β,γ-imido]triphosphate, reference compound]
Ki (HsRNMT-RAM [2]; Ki cap, against cap): 2.3 µM
mode of inhibition with cap (HsRNMT-RAM [2]; against cap): competitive

SMILES: Nc1ncnc2c1ncn2[C@@H]1O[C@H](CSCC[C@H](N)C(=O)O)[C@@H](O)[C@H]1O [SAH, S-adenosylhomocysteine]
Rmax (Avi-HsRNMT-RAM; SPR, no co-ligand): 14.3 RU
kd (Avi-HsRNMT-RAM; [7]): 0.072 s⁻¹
Kd (Avi-HsRNMT-RAM; [13]): 0.019 µM
Kd (Avi-HsRNMT-RAM; [14]): 0.018 µM
kon (Avi-HsRNMT-RAM): 3.8e+06 M⁻¹ s⁻¹

SMILES: C[S+](CC[C@H](N)C(=O)[O-])C[C@H]1O[C@@H](n2cnc3c(N)ncnc32)[C@H](O)[C@@H]1O (stereo partly drawn) [SAM, S-adenosylmethionine]
Km (HsRNMT-RAM [4]): 1.6 µM
Rmax (Avi-HsRNMT-RAM; SPR, no co-ligand): 14.9 RU
kd (Avi-HsRNMT-RAM; [7]): 0.1 s⁻¹
Kd (Avi-HsRNMT-RAM; [13]): 0.079 µM
Kd (Avi-HsRNMT-RAM; [14]): 0.089 µM
kon (Avi-HsRNMT-RAM): 1.2e+06 M⁻¹ s⁻¹

SMILES: Nc1ncnc2c1ncn2[C@@H]1O[C@H](C[C@@H](N)CC[C@H](N)C(=O)O)[C@@H](O)[C@H]1O [Sinefungin, reference compound]
Ki (HsRNMT-RAM [2]; Ki SAM, against SAM): 0.0068 µM
Ki (HsRNMT-RAM [2]; Ki cap, against cap): 0.104 µM
mode of inhibition with SAM (HsRNMT-RAM [2]; against SAM): competitive inhibition
mode of inhibition with cap (HsRNMT-RAM [2]; against cap): non-competitive inhibition
Rmax (Avi-HsRNMT-RAM; SPR, no co-ligand): 14.2 RU
kd (Avi-HsRNMT-RAM; [7]): 0.092 s⁻¹
Kd (Avi-HsRNMT-RAM; [13]): 0.077 µM
Kd (Avi-HsRNMT-RAM; [14]): 0.073 µM
kon (Avi-HsRNMT-RAM): 1.2e+06 M⁻¹ s⁻¹

Second part, the compound after the results:

ΔG (HsRNMT-RAM [1]): -7.5 kcal/mol
ΔH (HsRNMT-RAM [1]): -4.3 kcal/mol
−TΔS (HsRNMT-RAM [1]): -3.1 kcal/mol
entropic contribution Δ(TΔS) (HsRNMT-RAM [1]; DDD1060606 compared with DDD1870799): -1.8 kcal/mol
Kd (HsRNMT-RAM [1]): 3.2 µM
Ki (HsRNMT-RAM [2]; Ki SAM, against SAM): 1.6 µM
Ki (HsRNMT-RAM [2]; Ki cap, against cap): 1.6 µM
mode of inhibition with SAM (HsRNMT-RAM [2]; against SAM): Uncompetitive
mode of inhibition with cap (HsRNMT-RAM [2]; against cap): Uncompetitive
Rmax (Avi-HsRNMT-RAM; [8]): 13.2 RU
kd (Avi-HsRNMT-RAM; [8]): 0.27 s⁻¹
Kd (Avi-HsRNMT-RAM; [9]): 1.6 µM
Kd (Avi-HsRNMT-RAM; [10]): 1.4 µM
KD (kinetic) (Avi-HsRNMT-RAM; [11]): No binding
KD (steady state) (Avi-HsRNMT-RAM; [11]): No binding
Rmax (Avi-HsRNMT-RAM; [11]): No binding
ka (Avi-HsRNMT-RAM; [11]): No binding
kd (Avi-HsRNMT-RAM; [11]): No binding
KD (kinetic) (Avi-HsRNMT-RAM; [12]): No binding
KD (steady state) (Avi-HsRNMT-RAM; [12]): No binding
Rmax (Avi-HsRNMT-RAM; [12]): No binding
ka (Avi-HsRNMT-RAM; [12]): No binding
kd (Avi-HsRNMT-RAM; [12]): No binding
inhibition of HsRNMT-RAM activity (HsRNMT-RAM [3]): > 80%
IC50 (HsRNMT-RAM [3]): 3.16 µM
SMILES: O=C(Cc1ccsc1)N1CCCC(c2n[nH]c3ncccc23)C1 (stereo not drawn) [DDD1060606]

ΔG (HsRNMT-RAM [1]): -7.5 kcal/mol
ΔH (HsRNMT-RAM [1]): -6.2 kcal/mol
−TΔS (HsRNMT-RAM [1]): -1.3 kcal/mol
net enthalpic change ΔΔH (HsRNMT-RAM [1]; DDD1870799 in comparison with DDD1060606): -1.9 kcal/mol
Kd (HsRNMT-RAM [1]): 2.9 µM
Ki (HsRNMT-RAM [2]; Ki SAM, against SAM): 3.4 µM
Ki (HsRNMT-RAM [2]; Ki cap, against cap): 3.3 µM
mode of inhibition with SAM (HsRNMT-RAM [2]; against SAM): Uncompetitive
mode of inhibition with cap (HsRNMT-RAM [2]; against cap): Uncompetitive
Rmax (Avi-HsRNMT-RAM; [8]): 13.3 RU
kd (Avi-HsRNMT-RAM; [8]): 0.45 s⁻¹
Kd (Avi-HsRNMT-RAM; [9]): 2.5 µM
Kd (Avi-HsRNMT-RAM; [10]): 2.3 µM
KD (kinetic) (Avi-HsRNMT-RAM; [11]): No binding
KD (steady state) (Avi-HsRNMT-RAM; [11]): No binding
Rmax (Avi-HsRNMT-RAM; [11]): No binding
ka (Avi-HsRNMT-RAM; [11]): No binding
kd (Avi-HsRNMT-RAM; [11]): No binding
KD (kinetic) (Avi-HsRNMT-RAM; [12]): No binding
KD (steady state) (Avi-HsRNMT-RAM; [12]): No binding
Rmax (Avi-HsRNMT-RAM; [12]): No binding
ka (Avi-HsRNMT-RAM; [12]): No binding
kd (Avi-HsRNMT-RAM; [12]): No binding
inhibition of HsRNMT-RAM activity (HsRNMT-RAM [3]): > 80%
IC50 (HsRNMT-RAM [3]): 10 µM
SMILES: O=C(Cc1ccc(F)cc1)N1CCCC(c2n[nH]c3nc(O)ccc23)C1 (stereo not drawn) [DDD1870799]
